Laboratory results: patent US20090252814A1, “USE OF XENON FOR ORGAN PROTECTION” (priority 2005, published 2009)

Key:
[1] = xenon gas; cited from earlier work
HIF-1α = HIF-1α expression in neonatal rat brain after xenon (immunohistochemistry and western blot); assay type: in vivo, Sprague Dawley rats
Protocol: Studies were performed on Sprague Dawley, 7 day old rats. All procedures were approved by the Home Office.
The rats were exposed to 75% xenon for two hours. The xenon gas was administered to the rats by inhalation. The brains of said rats were then harvested, as described below, between 0-24 hours after exposure to the xenon gas.
Paraffin sections (4 μm) were dewaxed in xylene, rehydrated in a series of ethanol washes, and placed in distilled water before staining procedures. Slides were coated with 3-aminopropyl-tri-ethoxysylane.
For detection of HIF isoforms, monoclonal mouse anti-human HIF-1α antibody (67; Novus Biologicals, Littleton, Colo.) and polyclonal rabbit anti-mouse HIF-2α antibodies (PM8 and PM9, obtained from two different rabbits immunised with a peptide containing amino acids 337 to 439 of mouse HIF-2) were used. PM8 and PM9 were provided by Prof. P H Maxwell, Renal Section, Imperial College London, Hammersmith Campus, Du Cane Road, London, W12 ONN. Specific staining of each HIF-isoform was confirmed in immunoblots by using in vitro transcribed and translated mouse HIF-1 and HIF-2 (TnT T7; Promega, Madison, Wis.) and homogenates of rat endothelial cells.
For immunohistochemical analyses, antibody 67 was used at a dilution of 1:6000 and antibodies PM8 and PM9 were used at dilutions of 1:3000.
Detection of bound antibodies was performed by using biotinylated secondary anti-mouse or anti-rabbit antibodies and a catalysed signal amplification system (Dako, Hamburg, Germany) based on the streptavidin-biotin-peroxidase reaction, according to the instructions provided by the manufacturer. Antigen retrieval was performed for 90 seconds in preheated Dako target retrieval solution, using a pressure cooker. All incubations were performed in a humidified chamber. Between incubations, specimens were washed two to four times in buffer (50 mM Tris-HCl, 300 mM NaCl, 0.1% Tween-20, pH 7.6). […]

PHD2 = PHD2 expression in adult mice brains (western blot); assay type: in vivo, C57BL/6J mice; settings: 75% xenon and 25% oxygen 2 h, harvested 0-48 h after
Protocol: (§1) Studies were performed on 8- to 12-wk-old C57BL/6J mice (Jackson Labs, Bar Harbor, Me.) that were fed a standard laboratory diet. All procedures were approved by the Home Office.
The mice were exposed to 75% xenon and 25% oxygen for two hours. The xenon gas was administered to the mice by inhalation. The brains of said adult mice were then harvested as described below between 0-48 hours after exposure to the xenon gas.
The tissues were homogenised and western blots of adult mice brain samples were carried out as described in Example 1.
The primary antibody was monoclonal mouse anti-PHD2 antibody.

kidney = assay: Ischaemic-reperfusion renal injury with xenon preconditioning; assay type: in vivo, C57BL/6J mice
Protocol: as §1
The groups of mice were treated as follows: • Naïve=no anaesthesia and no surgery of any kind was carried out on these mice; • Sham=anaesthesia and surgery was carried out on these mice but there was no clamping of the renal pedicle; • Control (or P20)=anaesthesia and surgery together with clamping of the renal pedicle was carried out on these mice but there was but no xenon preconditioning; • XPD group (or XePC24)=mice were exposed to 75% xenon for two hours (XPD=preconditioned with xenon). The xenon gas was administered to the mice by inhalation. Twenty-four hours after this preconditioning the mice then underwent anaesthesia and surgery together with clamping of the renal pedicle; and • Xe=mice were exposed to 75% xenon for two hours but no surgery together with clamping of the renal pedicle was carried out.
Renal injury, as described below, was carried out 24 hours after the mice were exposed to xenon. […]
Kidneys were removed from mice immediately after they were killed, cut in half, fixed in neutral-buffered formalin, and embedded in paraffin. Sections (5 μm thick) of formalin-fixed, paraffin-embedded tissue were mounted on glass slides and stained with haematoxylin-eosin for general histology and quantitative analysis. All tissues were evaluated without investigator knowledge of the group from which it originated.
For quantification of morphologic data, more than 10 low-magnification fields (×200) including both cortex and outer medulla were randomly selected. […] The total score for each kidney was calculated by addition of all 10 scores (maximum score 30). The histology score was assessed in a blinded manner in each group. […] mice were assessed for the control and XPD groups and four mice were assessed for each of the naïve and sham groups.
Mean±SEM are presented. The significant difference in mean values was evaluated by either a t test or by Dunnett paired t test for multiple comparisons. […]

HIF-1α gene = assay: HIF-1α RNA expression in adult mice brains (RT-PCR); assay type: in vivo, C57BL/6J mice; settings: 75% xenon and 25% oxygen 2 h, harvested 0-72 h after
Protocol: as §1
The mice were exposed to 75% xenon and 25% oxygen for two hours. The xenon gas was administered to the mice by inhalation. The brains of said adult mice were then harvested as described below between 0-72 hours after exposure to the xenon gas.
Total RNA was extracted as described in Example 4. In addition RT-PCR was carried out as described in Example 4. The primers used for the PCR amplifications were: […]

[2] = XePC24 group compared to P20 group (no preconditioning)

[Xe] [xenon]
specific gravity or density [1]: 5.887 g/L
expression of HIF-1α and HIF-1β in pyramidal cells in the hippocampus (HIF-1α; 6 hours after exposure to 75% xenon, immunohistochemistry): induces expression
HIF-1α positive cells in cortex (HIF-1α; 6 hrs after 2 h exposure to 75% xenon, immunohistochemistry): clearly detected
HIF-1α expression in the brain (HIF-1α; 7 day old rats, 75% xenon 2 h, brains harvested 0-24 h after, western blot): time-dependent increase
expression of PHD2 (PHD2): time-dependent reduction
morphologic injury in the kidney (kidney; 75% xenon 2 h, 24 h before 20 min ischaemia and 24 h reperfusion, histology score): decreased
amount of creatinine in blood plasma (kidney; [2]): significantly decreases
amount of urea nitrogen in blood plasma (kidney; [2]): significantly decreases
transcription of the HIF-1α gene (HIF-1α gene): does not modulate
